Assay results taken from patent US11337971B2, “Dopamine D3 receptor selective antagonists/partial agonists and uses thereof” (THE UNITED STATES OF AMERICA, AS REPRESENTED BY THE …, priority 2018, dated 2022).

Assays:
human D3R = human D3R (Homo sapiens (Human), UniProt P35462); assay: Radioligand competition binding, [3H]N-methylspiperone, HEK293 membranes expressing human D3R; details: for D2/D3 / Ki: Table 1C; for D2/D3: ratio of Ki values; for Ki: read-out: D3R Ki ± SEM
Protocol: (§1) Binding at dopamine D2-like receptors was determined using previously described methods. […] Upon reaching 80-90% confluence, cells were harvested using pre-mixed Earle's Balanced Salt Solution (EBSS) with […] EDTA (Life Technologies) and centrifuged at 3000 rpm for 10 min at 21° C. The supernatant was removed and the pellet was resuspended in 10 mL hypotonic lysis buffer (5 mM MgCl2.6H2O, 5 mM Tris, pH 7.4 at 4° C.) and centrifuged at 20,000 rpm for 30 min at 4° C. The pellet was then resuspended in fresh EBSS buffer made from 8.7 g/L Earle's Balanced Salts without phenol red (US Biological, Salem, Mass.), 2.2 g/L sodium bicarbonate, pH to 7.4. A Bradford protein assay (Bio-Rad, Hercules, Calif.) was used to determine the protein concentration and membranes were diluted to 500 μg/mL and stored in a −80° C. freezer for later use.
(§2) Radioligand competition binding experiments were conducted using thawed membranes. Test compounds were freshly dissolved in 30% DMSO and 70% H2O to a stock concentration of 100 μM. To assist the solubilization of free-base compounds, 10 μl of glacial acetic acid was added along with the DMSO. Each test compound was then diluted into 13 half-log serial dilutions using 30% DMSO vehicle; final test concentrations ranged from 10 μM to 10 pM. Previously frozen membranes were diluted in fresh EBSS to a 100 μg/mL (for hD2R or hD3R) or 200 μg/mL (hD4R) stock for binding. […] buffer with 0.2 mM sodium metabisulfite, 50 μl of diluted test compound, 100 μl of membranes (10 μg total protein for hD2R or hD3R, 20 μg total protein for hD4R), and 50 μl of [^3H]N-methylspiperone (0.4 nM final concentration; Perkin Elmer). Nonspecific binding was determined using 10 μM butaclamol (Sigma-Aldrich, St. Louis, Mo.) and total binding was determined with 30% DMSO vehicle. All compound dilutions were tested in triplicate and the reaction incubated for one hour at room temperature. The reaction was terminated by filtration through Whatman GF/B filters, presoaked for one hour in 0.5% polyethylenimine, using a Brandel R48 filtering manifold (Brandel Instruments, Gaithersburg, Md.). The filters were washed 3 times with 3 mL of ice cold EBSS buffer and transferred to scintillation vials. […] IC50 values for each compound were determined from dose-response curves and Ki values were calculated using the Cheng-Prusoff equation; these analyses were performed using GraphPad Prism version 5.00 for Windows (GraphPad Software, San Diego, Calif.). Reported Ki values were determined from least three independent experiments.
(§3) The binding affinities of the compounds were evaluated by performing competition binding studies with [^3H]N-methylspiperone using membranes prepared from HEK293 cells expressing either the human D2R or D3R.

human D2R = human D2R (Homo sapiens (Human), UniProt P14416); assay: Radioligand competition binding, [3H]N-methylspiperone, HEK293 membranes expressing human D2R; details: Table 1C; read-out: D2R Ki ± SEM
Protocol: as §1, §2, §3

human D3R, sequence (P35462 whole entry): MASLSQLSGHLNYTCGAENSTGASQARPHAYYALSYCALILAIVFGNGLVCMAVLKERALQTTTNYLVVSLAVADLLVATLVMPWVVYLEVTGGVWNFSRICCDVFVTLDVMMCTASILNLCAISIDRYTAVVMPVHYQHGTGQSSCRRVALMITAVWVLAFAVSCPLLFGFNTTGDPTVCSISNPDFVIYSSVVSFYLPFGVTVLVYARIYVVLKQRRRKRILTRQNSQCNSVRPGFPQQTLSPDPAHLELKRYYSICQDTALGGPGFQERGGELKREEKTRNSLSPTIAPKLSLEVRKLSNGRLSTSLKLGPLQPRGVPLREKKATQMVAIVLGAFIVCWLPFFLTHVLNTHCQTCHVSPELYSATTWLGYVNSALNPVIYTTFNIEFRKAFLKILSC
human D2R, sequence (P14416 whole entry): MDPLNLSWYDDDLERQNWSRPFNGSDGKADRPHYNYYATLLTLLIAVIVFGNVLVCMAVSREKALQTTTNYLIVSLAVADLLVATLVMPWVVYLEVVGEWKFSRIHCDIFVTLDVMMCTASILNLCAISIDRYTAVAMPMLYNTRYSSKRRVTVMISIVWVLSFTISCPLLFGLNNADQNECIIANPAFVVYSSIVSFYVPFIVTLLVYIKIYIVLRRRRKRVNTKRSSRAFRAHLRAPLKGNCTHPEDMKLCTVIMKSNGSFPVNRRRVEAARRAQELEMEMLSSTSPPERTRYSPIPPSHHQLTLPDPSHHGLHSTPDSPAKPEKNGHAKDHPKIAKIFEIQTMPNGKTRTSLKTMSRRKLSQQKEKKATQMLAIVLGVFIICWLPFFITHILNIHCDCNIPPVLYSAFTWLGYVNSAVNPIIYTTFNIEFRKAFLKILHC

Row | D3R selectivity over D2R (D2R/D3R) (human D3R) [fold] | D2/D3 (human D3R) | Ki (human D3R) [nM] | Ki (human D2R) [nM] | Compound
1 | 1650 | 1646 | 13 ± 2.94 | 21400 ± 1500 | CCc1cc(Cl)c(OC)c(N2CCN(C[C@H](F)CCNC(=O)c3cc4ccccc4[nH]3)CC2)c1 [(R)-C4a, (R)-N-(4-(4-(3-chloro-5-ethyl-2-methoxyphenyl)piperazin-1-yl)-3-fluorobutyl)-1H-indole-2-carboxamide]
2 | 215 | 215 | 0.373 | 80.2 ± 13.8 | CCc1cccc(N2CCN(C[C@H](F)CCNC(=O)c3cc4ccccc4[nH]3)CC2)c1Cl [(R)-C5a, (R)-N-(4-(4-(2-chloro-3-ethylphenyl)piperazin-1-yl)-3-fluorobutyl)-1H-indole-2-carboxamide]
3 | 535 | 535 | 35.3 | 18900 ± 2720 | CCc1cc(Cl)c(OC)c(N2CCN(C[C@@H](F)CCNC(=O)c3cc4ccccc4[nH]3)CC2)c1 [(S)-C4a, (S)-N-(4-(4-(3-chloro-5-ethyl-2-methoxyphenyl)piperazin-1-yl)-3-fluorobutyl)-1H-indole-2-carboxamidec]
4 | > 1000 | 1060 | 0.84 | 891 ± 305 | CCc1cccc(N2CCN(C[C@@H](F)CCNC(=O)c3cc4ccccc4[nH]3)CC2)c1Cl [(S)-C5a, (S)-N-(4-(4-(2-chloro-3-ethylphenyl)piperazin-1-yl)-3-fluorobutyl)-1H-indole-2-carboxamide]
5 | – | 15 | 24.5 ± 4.44 | 364 ± 101 | CCc1cc(Cl)c(OC)c(N2CCN(CC(O)CCNC(=O)c3ccc4c(c3)OCO4)CC2)c1 (stereo not shown) [Compound 113a, N-(4-(4-(3-Chloro-5-ethyl-2-methoxyphenyl)piperazin-1-yl)-3-hydroxybutyl)benzo[d][1,3]dioxole-5-carboxamide]
6 | – | 140 | 3.02 ± 0.742 | 424 ± 79.9 | CCc1cccc(N2CCN(CC(O)CCNC(=O)c3ccc4c(c3)OCO4)CC2)c1Cl (stereo not shown) [Compound 113b, N-(4-(4-(2-Chloro-3-ethylphenyl)piperazin-1-yl)-3-hydroxybutyl)benzo[d 1,3]dioxole-5-carboxamide]
7 | – | 61 | 23.6 ± 7.35 | 1440 ± 48.8 | CCc1cc2c(cc1N1CCN(CC(O)CCNC(=O)c3cc4ccccc4o3)CC1)OCO2 (stereo not shown) [Compound 122, N-(4-(4-(6-Ethylbenzo[d][1,3]dioxol-5-yl)piperazin-1-yl)-3-hydroxybutyl)benzofuran-2-carboxamide]
